Tests used:
patients with COPD [1] = assay: Pharmacodynamic and safety assessments (ECG, vital signs, serum potassium, adverse events, laboratory), Example 1; format: in vivo, human
Description: Twelve-lead electrocardiograms (ECGs) were conducted after the subject had been resting and supine for ≧3 minutes. In addition to screening and pre-treatment baseline (Day 0) measurements, ECGs were also recorded at specific times during the treatment period. All 12-lead ECG monitors used for this study were calibrated and standardized. The ventricular rate, PR interval (the time elapsing between the beginning of the P wave and the beginning of the QRS interval in an electrocardiogram, corresponding to the electrical activity through the atria), QRS interval (the movement of electrical impulses through the ventricles), QT/QTc interval (the QT interval measures the time between the start of the Q wave and the end of the T wave in the heart's electrical cycle; QTc is a corrected QT interval, as determined by Fridericia's formula [QTcF] and Bazett's formula [QTcB]), and the overall ECG interpretation (normal or abnormal) were documented. Measurements were recorded prior to collection of any blood samples, where applicable. At least three original copies of each ECG (one each for the site, for the sponsor, and for the central ECG provider) were made. […]
Vital signs (heart rate and systolic blood pressure) were measured after the subject had been sitting for ≧3 minutes. […] Measurements were recorded prior to the collection of any blood samples, where applicable. […]

patients with COPD [2] = assay: Pulmonary function tests (trough and peak FEV1), tetomilast with Advair Diskus 250/50, parallel group study (Example 2); format: in vivo, human; design: Estimated Treatment Effect, change from baseline in trough FEV1 (tetomilast versus placebo) / Estimated Treatment Effect in Baseline Mean trough FEV1, Day 7 predose (tetomilast versus placebo) / Estimated Treatment Effect, change from baseline in peak FEV1 (tetomilast versus placebo): unit not given here
Description: Pulmonary function tests were conducted throughout the study to monitor the subjects' respiratory status. Flow volume curves were collected via spirometry. Combivent® (Boehringer Ingleheim Pharmaceuticals, Inc., Ridgefield Conn.), which was used for short-acting rescues as needed throughout the studies described below, was withheld for 6 hours prior to any spirometric testing. Spirometry testing was performed at screening, baseline (Day 0), and at specific times during the treatment period. Each subject could have up to 5 spirometric readings at any study time point. Spirometric readings were performed using equipment from the central provider, Quantum Research, Inc. (Louisville, Colo.). All spirometry readings were recorded and sent to Quantum Research, Inc. for analysis
For the spirometric readings, the best effort was reported as follows. The highest acceptable forced expiratory volume in one second (FEV1) value was selected as the “best” of the given test session. If two or more FEV1 values were tied as highest, the sum of FEV1 and forced vital capacity (FVC) for those efforts was used. If both conditions were equal between the two efforts, the values reported were taken from the effort that occurred first, chronologically, based on date and time of the effort.
This study was a multicenter, randomized, double-blind, placebo-controlled, parallel group, outpatient, phase 1B study of Advair Diskus® 250/50 (fluticasone propionate and salmeterol xinafoate, GlaxoSmithKline, Research Triangle Park, N.C.) administered concomitantly with oral placebo or 50 mg tetomilast (2×25 mg tablets) in patients with COPD. All patients underwent a minimum 28-day washout from short-acting inhaled corticosteroids, long-acting bronchodialators, and/or continuous oxygen therapy (>16 hours per day), and a minimum 7-day washout from beta2-agonists and/or oral theophylline. Patients were randomly assigned to one of the two treatment arms (oral tetomilast 50 mg or placebo) prior to dosing on Day 1, and were distributed 1:1 between the two groups according to a computer-generated randomization code provided by the Otsuka Maryland Research Institute (OMRI) Biostatistics Department. Randomization was performed using a central IVRS system and was centralized across study centers.
Subjects received 7 days of treatment with tetomilast 50 mg or placebo oral dose in treatment period 1. During treatment period 2, Days 8 through 35, concomitant inhaled Advair Diskus® 250/50 was added to the treatment regimen.
Subjects were instructed to take their oral study medication (tetomilast 50 mg or placebo) QD with 8 ounces of water immediately after breakfast for all study treatment days. Subjects assigned to the placebo group received two placebo tablets QD. Subjects assigned to the tetomilast group received 2×25 mg tetomilast tablets QD. On study Days 1-7, 14, 21, 28, and 35, subjects consumed their oral study medication (tetomilast 50 mg or placebo) at the clinic in the presence of the study staff.
The inhaled Advair Diskus® 250/50 was self-administered by subjects on all study days between Days 8 and 35, except for Days 14, 21, 28, and 35, when the medication was administered at the clinic in the presence of the study staff. Advair Diskus® 250/50 was administered twice daily (BID). The morning dose coincided with the timing of the oral dose (tetomilast 50 mg or placebo). The evening dose was taken 12 hours later. Dosing times were recorded in subject diaries.
Combivent® (Boehringer Ingleheim Pharmaceuticals, Inc., Ridgefield, Conn.) was provided by the sponsor for short-acting rescue use during the study. Combivent® was withheld for 6 hours prior to any PFTs. Combivent® was supplied as a metered-dose inhaler. Each actuation meters 21 μg of ipratropium bromide and 120 μg of albuterol sulfate from the valve and delivers […] of ipratropium bromide and 103 μg of albuterol sulfate (equivalent to 90 μg albuterol base) from the mouthpiece. […]

[3] = Baseline Day 1 predose, Day 7, before Advair Diskus
[4] = Baseline Day 1 predose, Day 14, both with Advair Diskus 250/50 BID
[5] = Baseline Day 1 predose, Day 21, both with Advair Diskus 250/50 BID
[6] = Baseline Day 1 predose, Day 28, both with Advair Diskus 250/50 BID
[7] = Baseline Day 1 predose, Day 35, both with Advair Diskus 250/50 BID

SMILES: CCOc1ccc(-c2nc(-c3cccc(C(=O)O)n3)cs2)cc1OCC [Tetomilast, 2-(3,4-diethoxyphenyl)-4-(2-carboxy-6-pyridyl)thiazole]
- differences in adverse events, serum chemistry, hematology, or urinalysis versus placebo (patients with COPD [1]; oral tetomilast with inhaled albuterol): no clinically meaningful differences
- changes in heart rate, systolic blood pressure, serum potassium, or QT interval versus placebo (patients with COPD [1]; oral tetomilast with relatively high doses of inhaled albuterol): No clinically meaningful changes
- effect on inhaled Advair Diskus 250/50 response (FEV1), exploratory repeated measures analysis (patients with COPD [2]; Advair Diskus 250/50 with tetomilast versus Advair Diskus 250/50 alone, days 8 through 35): possible potentiation of the effect of inhaled fluticasone propionate plus salmeterol
- Estimated Treatment Effect, change from baseline in peak FEV1 (tetomilast versus placebo) (patients with COPD [2]; Baseline Day 1 predose, Day 1, before Advair Diskus): 0.08
- Estimated Treatment Effect, change from baseline in trough FEV1 (tetomilast versus placebo) (patients with COPD [2]; Baseline Day 1 predose, Day 2, before Advair Diskus): 0.11
- Estimated Treatment Effect, change from baseline in trough FEV1 (tetomilast versus placebo) (patients with COPD [2]; Baseline Day 1 predose, Day 3, before Advair Diskus): 0.07
- Estimated Treatment Effect, change from baseline in trough FEV1 (tetomilast versus placebo) (patients with COPD [2]; Baseline Day 1 predose, Day 4, before Advair Diskus): 0.12
- Estimated Treatment Effect, change from baseline in trough FEV1 (tetomilast versus placebo) (patients with COPD [2]; Baseline Day 1 predose, Day 5, before Advair Diskus): 0.13
- Estimated Treatment Effect, change from baseline in trough FEV1 (tetomilast versus placebo) (patients with COPD [2]; Baseline Day 1 predose, Day 6, before Advair Diskus): 0.11
- Estimated Treatment Effect, change from baseline in peak FEV1 (tetomilast versus placebo) (patients with COPD [2]; [3]): 0.23
- Estimated Treatment Effect, change from baseline in trough FEV1 (tetomilast versus placebo) (patients with COPD [2]; [3]): 0.13
- Estimated Treatment Effect, change from baseline in peak FEV1 (tetomilast versus placebo) (patients with COPD [2]; [4]): 0.21
- Estimated Treatment Effect, change from baseline in trough FEV1 (tetomilast versus placebo) (patients with COPD [2]; [4]): 0.16
- Estimated Treatment Effect, change from baseline in peak FEV1 (tetomilast versus placebo) (patients with COPD [2]; [5]): 0.30
- Estimated Treatment Effect, change from baseline in trough FEV1 (tetomilast versus placebo) (patients with COPD [2]; [5]): 0.18
- Estimated Treatment Effect, change from baseline in peak FEV1 (tetomilast versus placebo) (patients with COPD [2]; [6]): 0.28
- Estimated Treatment Effect, change from baseline in trough FEV1 (tetomilast versus placebo) (patients with COPD [2]; [6]): 0.21
- Estimated Treatment Effect, change from baseline in peak FEV1 (tetomilast versus placebo) (patients with COPD [2]; [7]): 0.21
- Estimated Treatment Effect, change from baseline in trough FEV1 (tetomilast versus placebo) (patients with COPD [2]; [7]): 0.15
- Estimated Treatment Effect, change from baseline in trough FEV1 (tetomilast versus placebo) (patients with COPD [2]; Baseline Day 7 predose, Day 14, both with Advair Diskus 250/50 BID): 0.02
- Estimated Treatment Effect, change from baseline in trough FEV1 (tetomilast versus placebo) (patients with COPD [2]; Baseline Day 7 predose, Day 21, both with Advair Diskus 250/50 BID): 0.05
- Estimated Treatment Effect, change from baseline in trough FEV1 (tetomilast versus placebo) (patients with COPD [2]; Baseline Day 7 predose, Day 28, both with Advair Diskus 250/50 BID): 0.06
- Estimated Treatment Effect, change from baseline in trough FEV1 (tetomilast versus placebo) (patients with COPD [2]; Baseline Day 7 predose, Day 35, both with Advair Diskus 250/50 BID): 0.02
- Estimated Treatment Effect in Baseline Mean trough FEV1, Day 7 predose (tetomilast versus placebo) (patients with COPD [2]; Day 7 predose, before Advair Diskus): 0.38
- Trough FEV1 compared with placebo (patients with COPD [2]; day-1 baseline, all time points through day-7 except day-3, and day-14 through day-35 (with Advair Diskus 250/50)): statistically significantly improved
- peak and average FEV1 improvements compared with placebo (patients with COPD [2]; days 7, 21 and 28, approached statistical significance at day 14 and day 35): statistically significant
